Experimental findings from US4593019A, “N^6 -tricyclic adenosines” (Warner-Lambert Company, priority 1984, dated 1986) are described below.

Assay [1] can be described thus: Antihypertensive evaluation (AHP3): direct monitoring of aortic blood pressure and heart rate in conscious rats. In kind it is in vivo. As to conditions: 10 mg/kg, conscious rat. As for the experimental part:
This test procedure is described in the following paragraphs.
The continuous monitoring of pulsatile blood pressure (BP) from unrestrained conscious rats surgically equipped with polyethylene cannulas was accomplished by means of a computer assisted data capture scheme (CADCS). The basic elements of the methodology are the cannulation procedure and the CADCS.
Cannulation Procedure: Rats were anesthetized with Telazol (1:1 tiletamine HCl and zolazepam HCl); 20-40 mg/kg IM and the descending aorta exposed via a midline incision. Cannulas fabricated from polyethylene tubing were inserted into the aorta via an undersized puncture hole below the renal arteries. The puncture hole was made by a 23 G disposable needle with a section of the aorta clamped off above and below the puncture site. The cannulas, consisting of a PE100 (0.86 mm ID) body and a PE50 (0.58 mm ID) tip, were attached to a trocar, inserted through the psoas muscle, and passed subcutaneously along the midline of the back and externalized between the ears. The cannulas were anchored to the psoas muscle and between the scalulae (3-0 green braided suture). The midline incision was closed in two steps (muscle first, skin second) using continuous over-and over sutures (4-0 chronic). Each rat was then given penicillin 30,000 units subcutaneously (Penicillin G Procaine Sterile Suspension).
The rats were fitted with a harness-spring-swivel assembly designed to protect the cannula and to provide the rat relative freedom of movement. The harnesses were fabricated from nylon hook and loop tape cemented to a metal plate to which spring wires (18-8 stainless steel), were attached to brass swivels. […] While on test, each rat received a continuous slow infusion of heparinized saline solution (approximately […] or 40 units of heparin per 24 hour period) to prevent clot formation. Additional "flushes" of the cannula with heparinized saline were carried out when the aortic pulse pressure (systolic minus diastolic) was less than 25 mm Hg.
CADCS: The pulsatile blood pressure and heart rate of each of 32 rats was monitored every minute by means of two in-laboratory microcomputers communicating directly with a data concentrator computer. The data were first stored on the data concentrator disk and then transferred to a magnetic tape for analysis and report generation by the main research computer. The overall scheme involved modulating the primary signal from the pressure transducer, generating the primary data set of the one-minute values for systolic, diastolic, and mean blood pressures and heart rate by the in-lab microcomputer and the storage, analysis, and report generation by the main reserach computer.
The transducers were connected to analog signal conditioning modules. The modules provided a regulated excitation voltage for the transducers, amplification as required to interface the microprocessors and an active low pass filter to compensate for the pressure wave form distortion produced by the flexible, fluid filled, narrow cannula.
The microcomputers (one for each of two groups of 16 rats) were connected to the input components through the module interface units, an analog-to-digital converter for the pressure wave form signal and the digital inputs for the dose and event marker switches. The microcomputer controlled the sequential acquisition of data from the modular interface units through an internal synchronous time-of-day clock/time base generator. Utilizing the time base generator as a reference, the blood pressure values and the marker switch status for each of the 32 stations were sampled every ten msec. The microcomputer processed each blood pressure sample as it was received to produce "running average" values for heart rate, and mean, systolic and diastolic blood pressures.

In a further assay the target is T1, A1 receptor (Rattus norvegicus, UniProt P25099).
T1 construct: Whole brain minus cerebellum and brainstem from male Long Evans rats; from tissue; host or cells: rat whole brain minus cerebellum and brainstem (membranes)
T1 sequence (P25099 1-326): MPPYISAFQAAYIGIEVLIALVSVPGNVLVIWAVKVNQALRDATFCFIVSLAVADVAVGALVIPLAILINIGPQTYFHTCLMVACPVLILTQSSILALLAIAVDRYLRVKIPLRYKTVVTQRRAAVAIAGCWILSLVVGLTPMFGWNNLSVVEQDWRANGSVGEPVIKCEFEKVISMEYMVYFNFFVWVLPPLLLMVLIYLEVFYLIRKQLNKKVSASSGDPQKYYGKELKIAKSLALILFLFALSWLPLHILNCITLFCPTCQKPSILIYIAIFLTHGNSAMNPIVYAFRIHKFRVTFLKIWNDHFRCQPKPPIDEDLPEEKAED
Description: Adenosine Receptor Binding - A1 Receptor Affinity (RBA1), [3H]-CHA displacement. As to conditions: 1.0 nM [3H]-CHA, rat brain membranes, pH 7.7, 25° C., 1 h; read-out: RBA-1 IC50 (adenosine A1 receptor affinity). How it is done:
The supernatant was discarded, and the pellet was resuspended and centrifuged as before. […] Incubation volume was 2 ml. […] The radio-labeled ligand retained on the filter was measured by liquid scintillation spectrophotometry after shaking the filters for one hour or longer on a mechanical shaker in 10 ml of Beckman Ready-Solv HP scintillation cocktail. […] The maximal number of binding sites (Bmax) was calculated from the Scatchard plot.

As a reminder, the IC50 is the concentration that gives 50% inhibition.

Regarding `OC[C@H]1O[C@@H](n2cnc3c(NCC4c5ccccc5Oc5ccccc54)ncnc32)[C@H](O)[C@@H]1O` [Example 4, N^6-[Xanthene-9-methylamino]adenosine], the “HR ↑ (increase in heart rate)” value in assay [1] (1 hour) is 16%; in assay [1] (3 hours), 19%; in assay [1] (5 hours) it was 25%; in assay [1] (7 hours) it was 15%; in assay [1] (9 hours), 18%. For the same compound, the “MAP ↓ (decrease in mean arterial blood pressure)” value in assay [1] (1 hour) was found to be 11%; in assay [1] (3 hours), 4%; in assay [1] (5 hours) it was 8%; in assay [1] (7 hours) it was 12%; in assay [1] (9 hours) it was 8%. Besides, on A1 receptor, the half-maximal inhibitory concentration (IC50) was determined as 85 nM.
